Literature values as cited in US20040063806A1, “Antimicrobial polyalphaolefin composition” (priority 2000, published 2004).
Like-named read-outs stand apart in the source and are kept apart here.

Legend:
[1] = test system: Actinomyces naeslundii; conditions: origin A, medium NA
[2] = test system: Bacillus subtilis; conditions: Bacillus subtilis NCTC 8236, medium NA
[3] = test system: Clostridium sporogenes; conditions: origin A, medium EA
[4] = test system: Clostridium tetani; conditions: Clostridium tetani NCTC 9571, medium EA
[5] = test system: Corynebacterium diphtherias; conditions: Corynebacterium diphtherias NCTC 3984, medium BHI-A
[6] = test system: Corynebacterium xerosis; conditions: Corynebacterium xerosis ATCC 373, medium M-H
[7] = test system: Enterococcus faecalis
[8] = test system: Enterococcus arabinosus; conditions: Enterococcus arabinosus ATCC 8014, medium MACA
[9] = test system: Lactobacillus fermenti; conditions: Lactobacillus fermenti ATCC 707, medium MACA
[10] = test system: Listeria monocytogenes; conditions: Listeria monocytogenes ATCC 15313, medium BHI-A
[11] = test system: Mycobacterium phlei; conditions: origin A, medium BHI-A
[12] = test system: Mycobacterium tuberculosis; conditions: origin A, medium YA
[13] = test system: Sporosarcina urea; conditions: Sporosarcina urea ATCC 6473, medium BHI-A
[14] = test system: Staphylococcus aureus
[15] = test system: Staphylococcus albus; conditions: Staphylococcus albus NCTC 7292, medium NA
[16] = test system: Staphylococcus hominis; conditions: Staphylococcus hominis ATCC 27844, medium M-H
[17] = test system: Streptococcus agalactiae; conditions: Streptococcus agalactiae NCTC 8181, medium BHI-A
[18] = test system: Streptococcus pneumoniae; conditions: Streptococcus pneumoniae ATCC 33400, medium M-H
[19] = test system: Streptococcus pyogenes; conditions: Streptococcus pyogenes ATCC 21059, medium M-H
[20] = test system: Streptococcus coelicolor; conditions: origin A, medium BHI-A
[21] = test system: Acinetobacter lwoffii; conditions: Acinetobacter lwoffii ATCC 15309, medium M-H
[22] = test system: Brucella abortus; conditions: Brucella abortus NCTC 8226, medium BR.A.A.
[23] = test system: Enterobacter aerogenes; conditions: Enterobacter aerogenes ATCC 13048, medium M-H
[24] = test system: Enterobacter cloacae; conditions: Enterobacter cloacae ATCC 13047, medium M-H
[25] = test system: Enterobacter sakazakii; conditions: Enterobacter sakazakii NCTC 8155, medium NA
[26] = test system: Klebsiella aerogenes; conditions: Klebsiella aerogenes NCTC 8172, medium NA
[27] = test system: Klebsiella edwardsii; conditions: Klebsiella edwardsii NCTC 7242, medium NA
[28] = test system: Klebsiella oxytoca; conditions: Klebsiella oxytoca ATCC 43165, medium M-H
[29] = test system: Moraxella lwolffii; conditions: origin A, medium NA
[30] = test system: Salmonella typhi
[31] = test system: Serratia marcescens; conditions: Serratia marcescens ATCC 14756, medium M-H
[32] = test system: Shigella sonnei; conditions: Shigella sonnei NCTC 7240, medium NA
[33] = test system: Aspergillus niger; conditions: Aspergillus niger ATCC 6275, medium M
[34] = test system: Candida parapsylosis; conditions: origin A, medium SMA
[35] = test system: Candida stellatoidae; conditions: origin A, medium SMA
[36] = test system: Epidermophyton floccosum; conditions: Epidermophyton floccosum ATCC 10227, medium SMA
[37] = test system: Keratinomyces ajelloi; conditions: origin A, medium SMA
[38] = test system: Pityrosporum ovalae; conditions: Pityrosporum ovalae ATCC 14521, medium M
[39] = test system: Trichophyton cutaneum; conditions: origin A, medium SMA

For `Oc1cc(Cl)ccc1Oc1ccc(Cl)cc1Cl` [IRGAGUARD B 1000, 2,4,4′-trichloro-2′-hydroxydiphenyl ether], the Microbiostatic effect [1] is listed as 1.0 ppm, the Microbiostatic effect [2] is listed as 0.1 ppm and the Microbiostatic effect [3] is listed as 10.0 ppm. The Microbiostatic effect [4] was 3.0 ppm, the Microbiostatic effect [5] was 3.0 ppm and the Microbiostatic effect [6] was 5.0 ppm. The Microbiostatic effect ([7]; Enterococcus faecalis ATCC 6055, medium M-H) was 5.0 ppm, the Microbiostatic effect ([7]; Enterococcus faecalis ATCC 29212, medium M-H) was 4.0 ppm and the Microbiostatic effect ([7]; Enterococcus faecalis NCTC 12201, medium M-H, Varicomycin resistant) was 5.0 ppm. The Microbiostatic effect ([7]; Enterococcus faecalis NCTC 12203, medium M-H, Varicomycin resistant) was 5.0 ppm, the Microbiostatic effect [8] was 33.0 ppm and the Microbiostatic effect [9] was 33.0 ppm. For the same molecule, the Microbiostatic effect [10] was 1.0 ppm, the Microbiostatic effect [11] was 0.3 ppm and the Microbiostatic effect [12] was 100.0 ppm. For the same molecule, the Microbiostatic effect [13] was 0.1 ppm, the Microbiostatic effect ([14]; Staphylococcus aureus ATCC 6538, medium NA) was 0.01 ppm and the Microbiostatic effect ([14]; Staphylococcus aureus ATCC 9144, medium M-H) was 0.05 ppm. The Microbiostatic effect ([14]; Staphylococcus aureus ATCC 13709, medium NA) was 0.01 ppm, the Microbiostatic effect ([14]; Staphylococcus aureus ATCC 29213, medium M-H) was <0.125 ppm and the Microbiostatic effect ([14]; Staphylococcus aureus NCTC 6571, medium NA) was 0.03 ppm. For the same molecule, the Microbiostatic effect ([14]; Staphylococcus aureus NCTC 6966, medium NA) was 0.1 ppm, the Microbiostatic effect ([14]; Staphylococcus aureus NCTC 10443, medium M-H, Methicillin resistant) was 0.01 ppm and the Microbiostatic effect ([14]; Staphylococcus aureus NCTC 10703, medium M-H, Methicillin resistant) was 0.01 ppm. For the same molecule, the Microbiostatic effect ([14]; Staphylococcus aureus NCTC 11150, medium M-H, Methicillin resistant) was 0.02 ppm, the Microbiostatic effect ([14]; Staphylococcus aureus NCTC 11940, medium M-H, Methicillin resistant) was 0.01 ppm and the Microbiostatic effect ([14]; Staphylococcus aureus NCTC 12232, medium M-H, Methicillin resistant) was 0.01 ppm. For the same molecule, the Microbiostatic effect ([14]; Staphylococcus aureus NCTC 12493, medium M-H, Methicillin resistant) was 0.01 ppm, the Microbiostatic effect ([14]; Staphylococcus aureus NCTC 12497, medium M-H, Methicillin resistant) was 0.01 ppm and the Microbiostatic effect [15] was 0.1 ppm. The Microbiostatic effect [16] was 1.0 ppm, the Microbiostatic effect [17] was 3.0 ppm and the Microbiostatic effect [18] was 4.0 ppm. For the same molecule, the Microbiostatic effect [19] was 4.0 ppm, the Microbiostatic effect [20] was 1.0 ppm and the Microbiostatic effect [21] was 0.125 ppm. The Microbiostatic effect [22] was 0.1 ppm, the Microbiostatic effect [23] was 0.5 ppm and the Microbiostatic effect [24] was 0.5 ppm. The Microbiostatic effect [25] was 0.3 ppm, the Microbiostatic effect [26] was 0.3 ppm and the Microbiostatic effect [27] was 0.3 ppm. The Microbiostatic effect [28] was 1.0 ppm, the Microbiostatic effect [29] was 0.1 ppm and the Microbiostatic effect ([30]; Salmonella typhi NCTC 786, medium NA) was 0.3 ppm. The Microbiostatic effect ([30]; Salmonella typhi NCTC 8384, medium NA) was 0.3 ppm, the Microbiostatic effect [31] was >512 ppm and the Microbiostatic effect [32] was 0.1 ppm. The Microbiostatic effect [33] was 30 ppm, the Microbiostatic effect [34] was 30 ppm and the Microbiostatic effect [35] was 10 ppm. The Microbiostatic effect [36] was 1-10 ppm, the Microbiostatic effect [37] was 10 ppm and the Microbiostatic effect [38] was >1000 ppm. The Microbiostatic effect [39] was 10 ppm.
